Experiments:
Format in all cases: biochemical
[1] = molecular target: T1, UXS1 (UDP-xylose synthase) (Homo sapiens, UniProt Q8NBZ7); assay: NaBH4 reduction of enzyme-bound NAD+ in recombinant UXS1, LC-MS of NADH and activity
T1 sequence (Q8NBZ7 1-420): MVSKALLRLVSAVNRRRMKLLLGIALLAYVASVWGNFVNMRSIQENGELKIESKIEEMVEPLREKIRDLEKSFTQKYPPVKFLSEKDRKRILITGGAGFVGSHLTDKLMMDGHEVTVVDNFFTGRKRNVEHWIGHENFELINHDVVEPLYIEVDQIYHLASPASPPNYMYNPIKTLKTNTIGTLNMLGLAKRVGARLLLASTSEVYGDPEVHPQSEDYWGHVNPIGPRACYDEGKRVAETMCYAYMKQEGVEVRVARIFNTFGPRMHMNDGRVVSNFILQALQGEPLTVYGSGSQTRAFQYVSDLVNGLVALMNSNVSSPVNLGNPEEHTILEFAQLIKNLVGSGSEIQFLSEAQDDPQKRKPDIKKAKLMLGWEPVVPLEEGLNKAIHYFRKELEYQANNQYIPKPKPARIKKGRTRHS

[2] = molecular target: T2, TGDS (dTDP-D-glucose 4,6-dehydratase) (Homo sapiens, UniProt O95455); assay: Recombinant enzyme assay, LC-MS
T2 construct: N-terminal hexahistidine-tag fused to amino acid 15 of TGDS
T2 sequence (O95455 15-350): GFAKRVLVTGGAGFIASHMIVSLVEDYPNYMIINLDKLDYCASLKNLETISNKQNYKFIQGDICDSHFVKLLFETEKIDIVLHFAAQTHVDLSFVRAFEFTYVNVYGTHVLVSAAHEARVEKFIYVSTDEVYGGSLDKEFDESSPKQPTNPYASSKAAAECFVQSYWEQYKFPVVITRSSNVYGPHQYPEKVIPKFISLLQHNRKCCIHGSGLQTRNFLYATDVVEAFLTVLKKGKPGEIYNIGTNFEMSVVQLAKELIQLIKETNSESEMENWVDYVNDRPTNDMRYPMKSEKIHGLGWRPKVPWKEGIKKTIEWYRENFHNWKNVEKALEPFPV

[3] = molecular target: T1, UXS1 (UDP-xylose synthase); assay: Recombinant enzyme assay, LC-MS

Question: Which “NaBH4 reduction of enzyme-bound NAD+ in recombinant UXS1, LC-MS of NADH and acti” value [1] does the source give for `NC(=O)C1=CN([C@@H]2O[C@H](COP(=O)(O)OP(=O)(O)OC[C@H]3O[C@@H](n4cnc5c(N)ncnc54)[C@H](O)[C@@H]3O)[C@@H](O)[C@H]2O)C=CC1` [NADH] here?
Answer: This led to tenfold lower levels of NAD^+ and a concomitant increase in NADH

Question: `C[C@H]1O[C@H](OP(=O)(O)OP(=O)(O)OC[C@H]2O[C@@H](n3ccc(=O)[nH]c3=O)[C@H](O)[C@@H]2O)[C@H](O)[C@@H](O)C1=O` [UDP-4k6dG, UDP-4-keto-6-deoxyglucose] was tested. Which “Recombinant enzyme assay, LC-MS” value [2] did it give?
Answer: TGDS produced a metabolite with identical m/z, elution time and hydration status as UDP-4-keto-6-deoxyglucose produced by fungal UG46DH

Question: `O=c1ccn([C@@H]2O[C@H](COP(=O)(O)OP(=O)(O)O[C@H]3OC[C@@H](O)[C@H](O)[C@H]3O)[C@@H](O)[C@H]2O)c(=O)[nH]1` [UDP-Xyl, UDP-xylose] was tested. Which “Recombinant enzyme assay, LC-MS” value [3] did it give?
Answer: We observed an almost complete recovery of UDP-xylose production, an increase of NAD^+

From article PMC12488480, “A missing enzyme-rescue metabolite as cause of a rare skeletal dysplasia” (Nature, 2025)
